For one series, the system named is Candida albicans K1. In words: Neutropenic murine disseminated candidiasis model, kidney organism burden. Conditions: Candida albicans K1, single dose 2.5, 0.78 and 0.125 mg/kg, after 8 hours. In kind it is in vivo. An excerpt:
(§1) Animals. Six-week-old ICR Swiss specific-pathogen-free female mice weighing 23 to 27 g were used for all studies. Animals were maintained in accordance with the American Association for Accreditation of Laboratory Care criteria. Animal studies were approved by the University of Wisconsin Animal Care Committee.
Infection model. A neutropenic, murine, disseminated candidiasis model was used for the treatment studies. Mice were rendered neutropenic (polymorphonuclear cell counts of <100 mm^3) by injecting cyclophosphamide subcutaneously 4 days before infection (150 mg/kg of body weight) and 1 day before infection (100 mg/kg). Candida albicans K1 was subcultured on Sabouraud dextrose agar (SDA) 24 h prior to infection. The inocula were prepared by placing three to five colonies into 5 ml of sterile 0.15 M NaCl warmed to 35° C. The final inoculum was adjusted to 0.6 transmittance at 530 nm. Fungal counts of the inocula determined by viable counts on SDA were 5.63±0.38 log10 CFU/mL (mean±standard deviation).
Disseminated infection with C. albicans organisms was produced by injection of 0.1 ml of the inoculum via the lateral tail vein 2 h prior to the start of antifungal therapy. At the end of the study period (8 h), animals were sacrificed by CO2 asphyxiation. […] The results are expressed as the mean and standard deviation of the log10 CFU/kidney from three mice. […]

Series [1] has as its system Saccharomyces cerevisiae deletion mutant strains. In words: Chemical genomic profiling against deletion mutant yeast strains. In kind it is cell-based. The note with it: for sensitivity of mutant LEM3-Δ: chemical genomic profile of known antifungal agents. The method, then:
This method has been used to explore the mechanism of action for bioactive compounds, including natural products. Forazoline A was screened against over four thousand deletion mutant yeast strains, genomic DNA was extracted, and mutant-specific DNA barcodes were amplified and sequenced by Illumina sequencing. Forazoline A sensitive and resistant mutants were determined by quantification of DNA-barcodes, which provided a chemical genomic profile used to evaluate the mechanism of action.

Series [2] in a line: Synergy studies with amphotericin B (AMB). Format: cell-based. The note with it: combination with amphotericin B.
The next series in a line: Water solubility. Format: physicochemical.
The nature of series [3]: Toxic effects observed in treated mice of the candidiasis model. Conditions: neutropenic mice, 2.5, 0.78 and 0.125 mg/kg, 8 hours. Format: in vivo. How it is done: as §1
Drug Treatment. […] The intravenous dose was given by the lateral tail vein via a 200 μL infusion. The intraperitoneal dose was administered in 500 μL volume. Control mice were treated with saline. Groups of mice were sacrificed at the start of therapy and 8 hours after therapy for determination of organism burden in the kidney as described above.

Structures are written as SMILES.

From US11135203B2, “Forazolines, compositions thereof and uses thereof” (Wisconsin Alumni Research Foundation, priority 2013, dated 2021) come the findings set out here.

Turning to `CO[C@H]1[S+]([O-])C2=CC(=O)[C@](C)(O[C@H]3CC[C@H](N(C)C)[C@@H](C)O3)[C@@H](O)CCC(C)=C[C@@H]3[C@@H](C)[C@](C)(Cl)[C@@H](C[C@H]3O[C@H]3CC[C@H](N(C)C)[C@@H](C)O3)OC(=O)[C@@H]3CSC(=N3)[C@]1(C)N2` (some centres unmarked) [Forazoline A], the “reduction in organism burden compared to control mice” value in the series with Candida albicans K1 is on record as 1.5+/−0.12 log10 cfu/kidney. In addition, the “gene enrichment of top sensitive mutant strains (P<0.0001)” value in series [1] (GO: 0045332, P=0.0009, driven by LEM3 and FPK1 deletion mutants) was “significantly enriched for genes involved in phospholipid translocation”. The “interaction when tested with AMB” value in series [2] is on record as “synergy”. Also, the water solubility entry in the series “Water solubility” is given as “about 5 mg/mL”. For the same molecule, the “toxic effects from the compound” value in series [3] is listed as “No toxic effects”.
Consider `C[C@@H]1[C@H](O)[C@@H](C)/C=C/C=C/C=C/C=C/C=C/C=C/C=C/[C@H](O[C@@H]2O[C@H](C)[C@@H](O)[C@H](N)[C@@H]2O)C[C@@H]2O[C@](O)(C[C@@H](O)C[C@@H](O)[C@H](O)CC[C@@H](O)C[C@@H](O)CC(=O)O[C@H]1C)C[C@H](O)[C@H]2C(=O)O` [amphotericin, amphotericin B], for which the “sensitivity of mutant LEM3-Δ” value in series [1] was “not among the most sensitive strains”.
On the same count and under the same terms, in the case of `CC[C@H](C)C[C@H](C)CCCCCCCCC(=O)N[C@H]1C[C@@H](O)[C@@H](NCCN)NC(=O)[C@@H]2[C@@H](O)CCN2C(=O)[C@H]([C@H](O)CCN)NC(=O)[C@H]([C@H](O)[C@@H](O)c2ccc(O)cc2)NC(=O)[C@@H]2C[C@@H](O)CN2C(=O)[C@H]([C@@H](C)O)NC1=O` [caspofungin] it was “not among the most sensitive strains”; in that of `OC(Cn1cncn1)(Cn1cncn1)c1ccc(F)cc1F` [fluconazole], “not among the most sensitive strains”.
